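The compound was tested at five concentrations on cells cultured in 96-well plates, with a 48-hour exposure period. GI50 is the concentration that inhibits growth by half.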 Active and inactive are the calls of the source. Cut-off read from the data, not from the text of the source: active = GI50 up to about 1.1 µM and inactive = higher.
Columns and labels:
Assay in all cases: NCI anticancer screen, dose series, 48 h
M14 = system: M14
MOLT-4 = system: MOLT-4
MCF7 = system: MCF7
CCRF-CEM = system: CCRF-CEM
MDA-N = system: MDA-N
HCC 2998 = system: HCC 2998
OVCAR-8 = system: OVCAR-8
HCT-116 = system: HCT-116
SK-MEL-5 = system: SK-MEL-5
EKVX = system: EKVX
SF-539 = system: SF-539
OVCAR-3 = system: OVCAR-3
KM12 = system: KM12
NCI/ADR-RES = system: NCI/ADR-RES
OVCAR-5 = system: OVCAR-5
U-251 = system: U-251
NCI-H460 = system: NCI-H460
ACHN = system: ACHN
A549 = system: A549
MDA-MB-231 = system: MDA-MB-231
RPMI-8226 = system: RPMI-8226
SNB-75 = system: SNB-75
HL-60 = system: HL-60
IGROV-1 = system: IGROV-1
T47D = system: T47D
HCT-15 = system: HCT-15
NCI-H23 = system: NCI-H23
UO-31 = system: UO-31
786-0 = system: 786-0
SK-MEL-2 = system: SK-MEL-2
SNB-19 = system: SNB-19
SF-295 = system: SF-295
HOP-92 = system: HOP-92
SF-268 = system: SF-268
UACC-257 = system: UACC-257
OVCAR-4 = system: OVCAR-4
SW-620 = system: SW-620
Hs-578T = system: Hs-578T
TK-10 = system: TK-10
LOX IMVI = system: LOX IMVI
SR = system: SR
HOP-62 = system: HOP-62
NCI-H522 = system: NCI-H522
UACC-62 = system: UACC-62
MDA-MB-435 = system: MDA-MB-435
HT-29 = system: HT-29
SN12C = system: SN12C
PC-3 = system: PC-3
DU-145 = system: DU-145
SK-MEL-28 = system: SK-MEL-28
COLO 205 = system: COLO 205
BT-549 = system: BT-549
CAKI-1 = system: CAKI-1
A498 = system: A498
SK-OV-3 = system: SK-OV-3
Malme-3M = system: Malme-3M
NCI-H226 = system: NCI-H226

In the case of `O=C1/C(=C/c2ccc(OC(=O)c3ccccc3)cc2)CCC/C1=C\c1ccc(OC(=O)c2ccccc2)cc1`, the GI50 (M14) is reported as > 100 µM (inactive), the GI50 (MOLT-4) is reported as > 100 µM (inactive) and the GI50 (MCF7) is reported as > 100 µM (inactive). The GI50 (CCRF-CEM) was > 100 µM (inactive), the GI50 (MDA-N) was > 100 µM (inactive) and the GI50 (HCC 2998) was > 100 µM (inactive). For the same compound, the GI50 (OVCAR-8) was > 100 µM (inactive), the GI50 (HCT-116) was > 100 µM (inactive) and the GI50 (SK-MEL-5) was > 100 µM (inactive). The GI50 (EKVX) was > 100 µM (inactive), the GI50 (SF-539) was > 100 µM (inactive) and the GI50 (OVCAR-3) was > 100 µM (inactive). For the same compound, the GI50 (KM12) was > 100 µM (inactive), the GI50 (NCI/ADR-RES) was > 100 µM (inactive) and the GI50 (OVCAR-5) was > 100 µM (inactive). The GI50 (U-251) was > 100 µM (inactive), the GI50 (NCI-H460) was > 100 µM (inactive) and the GI50 (ACHN) was > 100 µM (inactive). For the same compound, the GI50 (A549) was > 100 µM (inactive), the GI50 (MDA-MB-231) was > 100 µM (inactive) and the GI50 (RPMI-8226) was > 100 µM (inactive). The GI50 (SNB-75) was 93.3 µM (inactive), the GI50 (HL-60) was > 100 µM (inactive) and the GI50 (IGROV-1) was > 100 µM (inactive). For the same compound, the GI50 (T47D) was > 100 µM (inactive), the GI50 (HCT-15) was greater than 100 µM and the GI50 (NCI-H23) was > 100 µM (inactive). The GI50 (UO-31) was > 100 µM (inactive), the GI50 (786-0) was > 100 µM (inactive) and the GI50 (SK-MEL-2) was > 100 µM (inactive). For the same compound, the GI50 (SNB-19) was > 100 µM (inactive), the GI50 (SF-295) was > 100 µM (inactive) and the GI50 (HOP-92) was > 100 µM (inactive). For the same compound, the GI50 (SF-268) was > 100 µM (inactive), the GI50 (UACC-257) was > 100 µM (inactive) and the GI50 (OVCAR-4) was > 100 µM (inactive). The GI50 (SW-620) was > 100 µM (inactive), the GI50 (Hs-578T) was > 100 µM (inactive) and the GI50 (TK-10) was > 100 µM (inactive). For the same compound, the GI50 (LOX IMVI) was > 100 µM (inactive), the GI50 (SR) was > 100 µM (inactive) and the GI50 (HOP-62) was > 100 µM (inactive). The GI50 (NCI-H522) was > 100 µM (inactive), the GI50 (UACC-62) was > 100 µM (inactive) and the GI50 (MDA-MB-435) was > 100 µM (inactive). The GI50 (HT-29) was > 100 µM (inactive), the GI50 (SN12C) was > 100 µM (inactive) and the GI50 (PC-3) was > 100 µM (inactive). For the same compound, the GI50 (DU-145) was > 100 µM (inactive), the GI50 (SK-MEL-28) was > 100 µM (inactive) and the GI50 (COLO 205) was > 100 µM (inactive). For the same compound, the GI50 (BT-549) was > 100 µM (inactive) and the GI50 (CAKI-1) was > 100 µM (inactive).
With `C/C=C1/CN2CCC34C(=C(C(=O)OC)C1CC23)Nc1ccc(O)cc14` (stereo not drawn) the GI50 (M14) was > 100 µM (inactive), the GI50 (MOLT-4) was > 100 µM (inactive) and the GI50 (MCF7) was > 100 µM (inactive). The GI50 (A498) was > 100 µM (inactive), the GI50 (CCRF-CEM) was > 100 µM (inactive) and the GI50 (MDA-N) was > 100 µM (inactive). For the same compound, the GI50 (HCC 2998) was > 100 µM (inactive), the GI50 (OVCAR-8) was > 100 µM (inactive) and the GI50 (HCT-116) was > 100 µM (inactive). The GI50 (SK-MEL-5) was > 100 µM (inactive), the GI50 (EKVX) was > 100 µM (inactive) and the GI50 (SF-539) was > 100 µM (inactive). For the same compound, the GI50 (OVCAR-3) was > 100 µM (inactive), the GI50 (KM12) was > 100 µM (inactive) and the GI50 (NCI/ADR-RES) was > 100 µM (inactive). The GI50 (OVCAR-5) was > 100 µM (inactive), the GI50 (U-251) was > 100 µM (inactive) and the GI50 (NCI-H460) was > 100 µM (inactive). For the same compound, the GI50 (ACHN) was > 100 µM (inactive), the GI50 (A549) was > 100 µM (inactive) and the GI50 (MDA-MB-231) was > 100 µM (inactive). The GI50 (RPMI-8226) was > 100 µM (inactive), the GI50 (SNB-75) was > 100 µM (inactive) and the GI50 (SK-OV-3) was > 100 µM (inactive). The GI50 (Malme-3M) was > 100 µM (inactive), the GI50 (HL-60) was > 100 µM (inactive) and the GI50 (IGROV-1) was > 100 µM (inactive). For the same compound, the GI50 (T47D) was > 100 µM (inactive), the GI50 (HCT-15) was greater than 100 µM and the GI50 (NCI-H23) was > 100 µM (inactive). For the same compound, the GI50 (UO-31) was > 100 µM (inactive), the GI50 (786-0) was 59.3 µM (inactive) and the GI50 (SK-MEL-2) was > 100 µM (inactive). The GI50 (SNB-19) was > 100 µM (inactive), the GI50 (SF-295) was 77.8 µM (inactive) and the GI50 (HOP-92) was > 100 µM (inactive). For the same compound, the GI50 (SF-268) was 61.8 µM (inactive), the GI50 (UACC-257) was > 100 µM (inactive) and the GI50 (OVCAR-4) was > 100 µM (inactive). The GI50 (SW-620) was > 100 µM (inactive), the GI50 (Hs-578T) was 34.3 µM (inactive) and the GI50 (TK-10) was > 100 µM (inactive). The GI50 (LOX IMVI) was > 100 µM (inactive), the GI50 (NCI-H522) was > 100 µM (inactive) and the GI50 (UACC-62) was > 100 µM (inactive). For the same compound, the GI50 (MDA-MB-435) was > 100 µM (inactive), the GI50 (HT-29) was > 100 µM (inactive) and the GI50 (SN12C) was > 100 µM (inactive). The GI50 (PC-3) was > 100 µM (inactive), the GI50 (DU-145) was > 100 µM (inactive) and the GI50 (NCI-H226) was > 100 µM (inactive). The GI50 (SK-MEL-28) was > 100 µM (inactive), the GI50 (COLO 205) was > 100 µM (inactive) and the GI50 (BT-549) was > 100 µM (inactive). For the same compound, the GI50 (CAKI-1) was > 100 µM (inactive).
